What all share (format): cell-based
For assay [1], the system named is TNF-α. Nature of the assay: LPS-induced TNF-α release from hPBMCs (ELISA). The following applies: Homo sapiens. The procedure:
Cytokine production by lipopolysaccharides (LPS) in hPBMCs (human peripheral blood mononuclear cells) was measured as in reference, Physiol. Res. 2003, 52, 593-598, the disclosure of which is incorporated by reference for the teaching of the assay. Blood was collected from healthy donors into Potassium EDTA vacutainer tubes (BID vacutainer). The PBMC were isolated using gradient centrifugation in Histopaque-1077 solution (Sigma). Isolated PBMC were suspended in RPMI 1640 (Rosewell Park Memorial Institute) culture medium (Sigma-Aldrich Fine Chemicals, USA) containing 10% fetal bovine serum (FBS) (JRH, USA), 100 U/mL penicillin (Sigma Chemical Co. St Louis, Mo., USA) and 100 μg/mL streptomycin (Sigma Chemical Co. St Louis, Mo.). The cell concentration was adjusted to 1×10^6 cells/mL. The viability as determined by trypan blue dye exclusion was uniform Ly≧98%. The cell suspension (100 μL) was added to the wells of a 96-well culture plate. Following cell plating, 79 μL of the culture medium and 1 μL of various concentrations of test compounds (compounds of formula 1) (final concentration 0.001, 0.003, 0.005, 0.01, 0.025, 0.03, 0.05, 0.1, 0.25, 0.3 and 1 μM) dissolved in DMSO (dimethyl sulfoxide, Sigma, Mo., USA) were added to the cells. The final concentration of DMSO was adjusted to 0.5%. The vehicle (0.5% DMSO) was used as control. […] The plates were incubated for 30 minutes at 37° C. in an atmosphere of 5% CO2. Finally, 20 μL (10 μg/mL) per well of LPS, (Escherchia coli 0127:B8, Sigma Chemical Co., St. Louis, Mo.) was added to the wells of the incubated plates, for a final concentration of 1 μg/mL. The plates were incubated at 37° C. for 5 hours in an atmosphere of 5% CO2. […] Supernatants were harvested and assayed for TNF-α, IL-1β, IL-6 and IL-8 by ELISA as described by the manufacturer. (OptiEIA ELISA sets, BD Biosciences, Pharmingen). The 50% inhibitory concentration (IC50) values were calculated by a nonlinear regression method using GraphPad software (Prism 3.03).
A general note: ELISA stands for enzyme-linked immunosorbent assay.

Assay [2] has as its system TNF-α. Nature of the assay: Spontaneous TNF-α release from synovial cells of RA patients. Particulars: Homo sapiens, Synovial cell, freshly isolated synovial cells from RA patients, 16 hours. As to the method:
Cytokine production in synovial cells obtained from rheumatoid arthritis patients undergoing knee replacement surgery, was measured as per the method described in reference, Lancet, 1989, 29, 244-247, the disclosure of which is incorporated herein by reference for the teaching of the assay. The synovial membrane tissue was digested by incubating at 37° C. for 3 hours in an atmosphere of 5% CO2, in Roswell Park Memorial Institute (RPMI) medium containing penicillin-G (100 U/mL), streptomycin (100 μg/mL), amphotericin B (50 ng/mL) (GIBCO), 1.33 mg/mL collagenase Type I (Worthington Biochemical Corporation, New Jersey, USA), 0.5 μg/mL DNAse Type I (SIGMA) and 8.33 U/mL heparin (Biological E. Limited, India). The digested tissue was then filtered through a membrane (mesh size 70 micron) (SIGMA), the cells were washed 3 times and suspended in complete medium (RPMI supplemented with 5% FCS and 5% human serum). The cell concentration was adjusted to 1×10^6 cells/mL. The viability as determined by trypan blue dye exclusion was uniform Ly≧98%. The cell suspension (100 μL) was added to the wells of a 96-well culture plate. […] The final concentration of DMSO was adjusted to 0.5%. The vehicle (0.5° A) DMSO) was used as control. SB 203580 (20 μM) was used as a standard. The plates were incubated for 16 hours at 37° C. in 5% CO2 atmosphere. […]

The test system of assay [3] is IL-8. Briefly: Spontaneous IL-8 release from synovial cells of RA patients. Particulars: Homo sapiens, Synovial cell, freshly isolated synovial cells from RA patients, 16 hours. As to the method:
Cytokine production in synovial cells obtained from rheumatoid arthritis patients undergoing knee replacement surgery, was measured as per the method described in reference, Lancet, 1989, 29, 244-247, the disclosure of which is incorporated herein by reference for the teaching of the assay. The synovial membrane tissue was digested by incubating at 37° C. for 3 hours in an atmosphere of 5% CO2, in Roswell Park Memorial Institute (RPMI) medium containing penicillin-G (100 U/mL), streptomycin (100 μg/mL), amphotericin B (50 ng/mL) (GIBCO), 1.33 mg/mL collagenase Type I (Worthington Biochemical Corporation, New Jersey, USA), 0.5 μg/mL DNAse Type I (SIGMA) and 8.33 U/mL heparin (Biological E. Limited, India). The digested tissue was then filtered through a membrane (mesh size 70 micron) (SIGMA), the cells were washed 3 times and suspended in complete medium (RPMI supplemented with 5% FCS and 5% human serum). The cell concentration was adjusted to 1×10^6 cells/mL. The viability as determined by trypan blue dye exclusion was uniform Ly≧98%. The cell suspension (100 μL) was added to the wells of a 96-well culture plate. Following cell plating, 100 μL of the culture medium and 1 μL of various concentrations of the compound of example 3 (final concentration 0.001, 0.003, 0.01, 0.03, 0.1, 0.3, 1 and 3 μM) dissolved in DMSO (dimethylsulfoxide, Sigma, Mo., USA) were added to the cells. […]

The source of these data is patent US8906953B2, “Pyrrolidine substitute flavones for the treatment of inflammatory disorders” (Piramal Enterprises Limited, priority 2010, dated 2014).

One may read the IC50 as the concentration that inhibits the measured activity by half. For `CN1CC[C@@H](c2c(O)cc(O)c3c(=O)cc(-c4ccc(C(F)(F)F)cc4Cl)oc23)[C@@H]1CO.Cl` [Compound of example 3, (+)-trans-2-(2-Chloro-4-trifluoromethyl-phenyl)-5,7-dihydroxy-8-(2-hydroxymethyl-1-methyl-pyrrolidin-3-yl)-chromen-4-one hydrochloride], the IC50 in assay [1] (LPS-induced release from hPBMCs (Table 1A), read-out: IC50 TNF-α) is 1 µM; in assay [1] (LPS-stimulated hPBMCs, 5 hours, read-out: Activity (TNF-α) IC50), 1 µM; in assay [2], 20 µM; in assay [3], 3.5 µM.
